Assay results reported in publication PMC4521012, “Distortion of the Major Histocompatibility Complex Class I Binding Groove to Accommodate an Insulin-derived 10-Mer Peptide” (The Journal of Biological Chemistry, 2015).

Assays:
[1] = system: G9C8 T-cell clone (insulin-reactive CD8+ T-cells); assay: Staining of insulin-specific CD8 T-cells with H-2K^d·peptide tetramers; format: cell-based, NOD mouse; details: flow cytometry; for Tetramer+ (% of G9C8 clone stained by H-2K^d·peptide tetramer): splenocytes of G9Cα−/− NOD mice, 50 nM dasatinib preincubation, 0.5 μg tetramer, 15 min at 37 °C, gated on live CD8+ cells
[2] = system: G9C8 T-cell clone (insulin-reactive CD8+ T-cells); assay: T-cell functional assays (proliferation, MIP1β and IFNγ production); format: cell-based, NOD mouse; details: in all assays: [3H]thymidine proliferation, MIP1β and IFNγ ELISA; CD8+ T-cells with bone marrow-derived dendritic cells 10:1
Description: Splenic CD8^+ T-cells were purified using a Miltenyi MACS CD8^+ isolation kit (>90% purity) and cultured at 10:1 with bone marrow-derived dendritic cells with the LYLVCGERGF (G9GF), LYLVCGERG (G9G), or LYLVCGERV (G9V) peptide in RPMI medium supplemented with 5% FCS, 2 mM L-glutamine, 0.05 mM 2-mercaptoethanol, penicillin/streptomycin. Each sample was plated in duplicate. After 48 h of incubation, cells were pulsed with 0.5 μCi of [^3H]thymidine for 18 h, harvested, and counted to determine [^3H]thymidine incorporation.
Supernatants were removed from the proliferation assay cultures prior to the addition of [^3H]thymidine. MIP1β was measured by sandwich ELISA (R&D systems), whereas IFNγ was measured using a similar protocol (BD Biosciences) with the modification that the capture antibody was diluted in carbonate buffer and incubated at 4 °C overnight. Plates were blocked at 37 °C for 1 h, and the detection antibody was incubated for 1 h at room temperature.

G9C8 TCR = assay: Surface plasmon resonance analysis of G9C8 TCR binding to peptide-H-2K^d; set-up: species or system NOD mouse; details: SPR, 25 °C
Description: Binding analysis was performed using a BIAcore 3000^TM equipped with a CM5 sensor chip as described previously ([41]). Binding analysis was performed four times in independent experiments using pMHC monomers generated in house and from the National Institutes of Health tetramer facility. Approximately 200–500 RU of peptide-H-2K^d (in complex with G9GF, G9G, or G9V) was attached to the CM5 sensor chip at a slow flow rate of 10 μl/min to ensure uniform distribution on the chip surface. Combined with the small amount of peptide-H-2K^d bound to the chip surface, this reduced the likelihood of off-rate-limiting mass transfer effects. The G9C8 TCR was purified and concentrated to ∼140 μM on the same day of surface plasmon resonance analysis to reduce the likelihood of TCR aggregation affecting the results. For equilibrium analysis, eight serial dilutions were prepared in triplicate for each sample and injected over the relevant sensor chips at 25 °C. TCR was injected over the chip surface using kinetic injections at a flow rate of 45 μl/min using H-2K^d·AYAAAAAAV or HLA-A*0201·ALWGPDPAAA in different experiments as negative controls.

H-2K^d = H-2K^d (Mus musculus, UniProt P01902); assay: pMHC stability assay (thermal stability by CD spectroscopy); format: physicochemical, murine; details: CD spectroscopy at 218 nm, 2.5 μM protein in PBS, 4-90 °C in 0.5 °C intervals, two-state trimer-to-monomer fit
Sequence of H-2K^d (P01902 whole entry, looked up): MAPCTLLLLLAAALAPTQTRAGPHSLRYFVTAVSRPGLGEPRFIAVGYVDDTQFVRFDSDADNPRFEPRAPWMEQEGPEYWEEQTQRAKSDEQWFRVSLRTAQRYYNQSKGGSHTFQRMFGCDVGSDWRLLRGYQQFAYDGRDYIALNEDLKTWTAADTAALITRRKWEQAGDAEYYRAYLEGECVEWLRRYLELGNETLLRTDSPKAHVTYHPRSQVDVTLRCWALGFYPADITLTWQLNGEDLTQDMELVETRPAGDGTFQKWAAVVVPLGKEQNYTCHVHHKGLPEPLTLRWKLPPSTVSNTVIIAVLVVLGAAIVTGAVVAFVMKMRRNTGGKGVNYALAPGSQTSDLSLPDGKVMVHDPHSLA
Description: Thermal stability of H-2K^d complexes was assessed by circular dichroism (CD) spectroscopy, monitoring the change in ellipticities at 218 nm. Data were collected on an Aviv Model 215 spectropolarimeter (Aviv Biomedical Inc., Lakewood, NJ) using a 0.1-cm quartz cell. Proteins were dissolved in PBS at concentrations of 2.5 μM. Melting curves were recorded in 0.5 °C intervals from 4 °C up to a maximum temperature of 90 °C when protein aggregation was observed. Melting curves were analyzed assuming a two-state trimer-to-monomer transition from the native (N) to unfolded (U) conformation N3 ↔ 3U with an equilibrium constant K = [U]^3/[N3] = F/(3c^2(1 − F)^3), where F and c are the degree of folding and protein concentration, respectively. Data were fitted as described ([38]). Fitted parameters were the melting temperature (Tm), van't Hoff's enthalpy (ΔHvH), and the slope and intercept of the native baseline. Because all protein complexes aggregated upon unfolding, the ellipticity of the unfolded state was set as a constant of −4,500 degrees cm^2 dmol^−1 ([39], [40]).

| Sequence | Tetramer+ (% of G9C8 clone stained by H-2K^d·peptide tetramer) [1] | Sensitivity of the G9C8 T-cell clone to G9G compared with G9GF [2] | G9C8 TCR affinity for the altered ligand compared with the native ligands (higher) (G9C8 TCR) | Mean fluorescence intensity of tetramer staining, compared with H-2K^d·G9G tetramer (in words) ([1]; different concentrations of each tetramer) | Melting temperature of the H-2K^d complex, difference to G9G and G9GF (higher) (H-2K^d) | Sensitivity of the G9C8 T-cell clone to G9V compared with G9G [2] |
| --- | --- | --- | --- | --- | --- | --- |
| LYLVCGERG [G9G, native insulin B chain 9-mer peptide, tested as complex or tetramer with H-2K^d] | 85.7% | about 5 times |  |  |  |  |
| LYLVCGERV [G9V] | 87.9% |  | > 10 times | substantially higher | over 20 °C | at least 5 times |
